Source: paper PMC4294347, “Therapeutic potential of ERK5 targeting in triple negative breast cancer” (Oncotarget, 2014)

Molecular target: T1, ERK5 (Homo sapiens, UniProt Q13164)
T1 construct: gene MAPK7; endogenous ERK5 immunoprecipitated from EGF-treated MDA-MB231 cells
Experiment: in vitro autophosphorylation kinase assay on immunoprecipitated active ERK5, Western blot mobility-shift readout
Assay type: biochemical

T1 sequence (Q13164 2-816): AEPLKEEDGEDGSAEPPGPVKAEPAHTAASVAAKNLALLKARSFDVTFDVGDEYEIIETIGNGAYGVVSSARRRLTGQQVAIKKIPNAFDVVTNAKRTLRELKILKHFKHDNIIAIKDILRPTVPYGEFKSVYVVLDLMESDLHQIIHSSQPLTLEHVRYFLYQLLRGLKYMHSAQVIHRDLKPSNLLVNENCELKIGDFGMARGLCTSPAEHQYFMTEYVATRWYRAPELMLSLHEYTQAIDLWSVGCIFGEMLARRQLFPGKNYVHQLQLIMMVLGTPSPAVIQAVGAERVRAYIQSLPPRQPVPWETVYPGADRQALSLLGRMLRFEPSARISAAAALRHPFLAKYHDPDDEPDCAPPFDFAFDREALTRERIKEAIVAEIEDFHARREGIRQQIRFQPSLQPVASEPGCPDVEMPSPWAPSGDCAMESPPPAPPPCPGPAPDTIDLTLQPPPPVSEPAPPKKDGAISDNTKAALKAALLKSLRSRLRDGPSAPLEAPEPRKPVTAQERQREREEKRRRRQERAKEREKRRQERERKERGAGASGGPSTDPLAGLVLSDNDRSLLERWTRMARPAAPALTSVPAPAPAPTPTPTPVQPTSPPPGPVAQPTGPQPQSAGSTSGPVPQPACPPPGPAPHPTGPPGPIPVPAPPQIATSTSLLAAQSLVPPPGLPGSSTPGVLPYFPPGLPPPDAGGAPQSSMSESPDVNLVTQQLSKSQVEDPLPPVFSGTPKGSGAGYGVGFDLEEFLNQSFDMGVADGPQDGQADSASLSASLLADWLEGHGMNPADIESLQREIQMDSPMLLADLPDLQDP

In the case of `CN1C/C=C/CCOc2cccc(c2)-c2ccnc(n2)Nc2cccc(c2)C1` [TG02], the IC50 is reported as 100 nM.
